We go through two compounds from patent publication US20260055154A1, “LONG-ACTING DUAL-AGONIST COMPOUND” (CHENGDU AODA BIOTECHNOLOGY CO., LTD, priority 2022, published 2026).

Where two headings read alike, the source gives them in different places. Starred links: 1 amine or outer side, 2 acyl side, 3 side chain; linkers in the order of their positions; H or OH if unused. Non-standard residues stand in square brackets, D forms with d. Residues, ends and D or L forms follow the SMILES beside them. Groups on a side chain read outwards from the residue. No end group written: not given here. *: point of attachment. X1 = O=C(O)CCCCCCCCCCCCCCCCCCC(=O)N[C@@H](CCC(=O)NCCOCCOCCOCCOCCOCC(=O)*)C(=O)O; C20 diacid = O=C(O)CCCCCCCCCCCCCCCCCCC(=O)*; γGlu = O=C(O)[C@H](CCC(=O)[*:2])N[*:1]; AEEA = NCCOCCOCC(=O)O; Aib = CC(C)(N)C(=O)O

One data set deals with T1, GLP-1R (Homo sapiens, UniProt P43220).
T1 construct: expressed in transfected cells; host or cells: CHO-K1
T1 sequence (P43220 24-463, species assumed): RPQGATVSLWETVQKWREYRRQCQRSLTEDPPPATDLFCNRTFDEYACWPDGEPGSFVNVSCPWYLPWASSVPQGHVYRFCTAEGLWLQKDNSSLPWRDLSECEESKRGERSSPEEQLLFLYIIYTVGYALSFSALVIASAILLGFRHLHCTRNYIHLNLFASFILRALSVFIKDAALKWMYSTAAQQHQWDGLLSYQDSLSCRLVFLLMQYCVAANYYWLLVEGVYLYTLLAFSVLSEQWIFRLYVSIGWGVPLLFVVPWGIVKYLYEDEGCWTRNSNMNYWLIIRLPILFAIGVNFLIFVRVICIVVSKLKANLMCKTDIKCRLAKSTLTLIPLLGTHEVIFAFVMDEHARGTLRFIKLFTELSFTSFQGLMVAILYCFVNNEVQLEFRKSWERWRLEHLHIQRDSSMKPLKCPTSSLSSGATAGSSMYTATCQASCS
In words: Determination of GLP-1 activity (cAMP, chemiluminescence, stable cell line). Conditions: CHO-K1 cell line stably expressing GLP-1R; OXM3 as reference substance. It counts as cell-based. The protocol: (§1) GLP-1R activates the intracellular adenylate cyclase pathway under the stimulation of its specific agonist, to increase the cAMP level and ultimately lead to the production and release of insulin. The stable cell line expressing GLP-1R was stimulated by the test substance to rapidly increase the intracellular cAMP level. The relative light units (RLU) in the cells after stimulation by each dose of the test substance were determined by the chemiluminescence method, and then the EC50 of the agonist was calculated. This activity determination method is currently a common determination method for GLP-1 receptor agonist activity at home and abroad.
A CHO-K1 cell line that stably expresses GLP-IR was adopted, and the cells were stimulated with different concentrations of agonists. The relative light units after stimulation of the cells by each dose of agonists were measured. Using OXM3 as a reference substance, the relative biological activity of each agonist was obtained.

The next data set has as its target T2, GcgR (Homo sapiens, UniProt P47871).
T2 construct: expressed in transfected cells; host or cells: CHO-K1
In words: Gcg activity determination (cAMP, chemiluminescence, stable cell line). The data set is classed as cell-based. Conditions: CHO-K1 cell line stably expressing GcgR; OXM3 as reference. The protocol:
as §1, with “GcgR activates” for “GLP-1R activates”, “The stably” for “The stable”, “expressing GcgR” for “expressing GLP-1R”, “after the” for “after”, “of agonists” for “of the test substance”, “for Geg” for “for GLP-1”
A CHO-K1 cell line stably expressing GcgR was adopted. The cells were stimulated with different concentrations of agonists, and the relative light units (RLU) after the stimulation of cells by each dose of agonists were determined. Using OXM3 as a reference, the relative biological activity of the agonist was obtained.

Data set [1] in a line: in vivo. Conditions: male, cynomolgus monkey, sc, 0.2 mg/kg. On the set-up: species or system cynomolgus monkeys. The protocol:
The experimental animals were cynomolgus monkeys, and two male cynomolgus monkeys in each group were subcutaneously administrated the compound at a dose of 0.2 mg/kg. The venous blood samples were collected before drug administration (0 h), and 1 h, 2 h, 3 h, 4 h, 8 h, 12 h, 18 h, 24 h, 48 h, 96 h, 144 h and 168 h after administration, respectively. The plasma samples were separated by centrifugation. The blood drug concentrations of the corresponding compounds in the plasma samples were determined by liquid chromatography-mass spectrometry.

Data set [2] can be described thus: in vivo. Conditions: human.
For data set [3] the following is noted: human, in vivo; cited from earlier work.

T2 sequence (P47871 26-477, species assumed): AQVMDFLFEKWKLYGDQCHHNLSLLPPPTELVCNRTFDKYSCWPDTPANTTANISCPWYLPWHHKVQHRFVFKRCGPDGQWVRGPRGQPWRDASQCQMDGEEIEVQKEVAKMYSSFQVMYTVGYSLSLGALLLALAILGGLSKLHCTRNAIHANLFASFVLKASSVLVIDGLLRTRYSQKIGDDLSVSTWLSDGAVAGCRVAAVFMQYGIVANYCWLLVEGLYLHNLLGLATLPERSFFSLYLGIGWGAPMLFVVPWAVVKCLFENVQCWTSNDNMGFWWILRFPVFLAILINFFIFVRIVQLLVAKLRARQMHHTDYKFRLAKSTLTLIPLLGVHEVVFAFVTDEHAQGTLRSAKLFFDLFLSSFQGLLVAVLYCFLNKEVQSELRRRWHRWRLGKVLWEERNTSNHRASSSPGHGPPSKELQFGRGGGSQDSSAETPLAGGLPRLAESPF

A word on the half-life: it is the time in which the quantity being followed falls by half. Consider `CC(C)C[C@H](NC(=O)[C@H](CC(C)C)NC(=O)[C@H](Cc1c[nH]c2ccccc12)NC(=O)[C@H](CCC(=O)O)NC(=O)[C@@H](NC(=O)[C@H](Cc1ccccc1)NC(=O)[C@H](CCC(=O)O)NC(=O)[C@H](CCCCNC(=O)COCCOCCOCCOCCOCCNC(=O)CC[C@H](NC(=O)CCCCCCCCCCCCCCCCCCC(=O)O)C(=O)O)NC(=O)[C@H](C)NC(=O)[C@H](CCCCN)NC(=O)[C@H](CCCCN)NC(=O)[C@H](CCC(=O)O)NC(=O)[C@H](CC(=O)O)NC(=O)[C@H](CC(C)C)NC(=O)[C@H](Cc1ccc(O)cc1)NC(=O)[C@H](CCCCN)NC(=O)[C@H](CO)NC(=O)[C@H](Cc1ccc(O)cc1)NC(=O)[C@H](CC(=O)O)NC(=O)[C@H](CO)NC(=O)[C@@H](NC(=O)[C@H](Cc1ccccc1)NC(=O)[C@@H](NC(=O)CNC(=O)[C@H](CCC(N)=O)NC(=O)C(C)(C)NC(=O)[C@@H](N)Cc1c[nH]cn1)[C@@H](C)O)[C@@H](C)O)C(C)C)C(=O)N[C@@H](CCC(=O)O)C(=O)NCC(=O)NCC(=O)N1CCC[C@H]1C(=O)N[C@@H](CO)C(=O)N[C@@H](CO)C(=O)NCC(=O)N[C@@H](C)C(=O)N1CCC[C@H]1C(=O)N1CCC[C@H]1C(=O)N1CCC[C@H]1C(=O)N[C@@H](CO)C(N)=O` [Compound 2, His-Aib-Gln-Gly-Thr-Phe-Thr-Ser-Asp-Tyr-Ser-Lys-Tyr-Leu-Asp-Glu-Lys-Lys-Ala-Lys(PEG5CH2CO-γGlu-eicosanedioic acid)-Glu-Phe-Val-Glu-Trp-Leu-Leu-Glu-Gly-Gly-Pro-Ser-Ser-Gly-Ala-Pro-Pro-Pro-Ser-NH2] (H-H[Aib]QGTFTSDYSKYLDEKKAK(X1)EFVEWLLEGGPSSGAPPPS-NH2), for which, at GLP-1R, the Relative biological activity turned out to be 259.9%. The “Biological activity (%)” value on GcgR turned out to be 86.9%. Also, the half-life in “in vivo [1]” was 140 h; in the data set “in vivo [2]”, around 280 h.
With “His-Aib-Gln-Gly-Thr-Phe-Thr-Ser-Asp-Tyr-Ser-Lys-Tyr-Leu-Asp-Glu-Lys-Lys-Ala-Lys(AEEA-AEEA-γGlu-eicosanedioic acid)-Glu-Phe-Val-Glu-Trp-Leu-Leu-Glu-Gly-Gly-Pro-Ser-Ser-Gly-NH2 (H[Aib]QGTFTSDYSKYLDEKKAK([AEEA-AEEA-γGlu-C20 diacid])EFVEWLLEGGPSSG-NH2) [OXM3]”, the half-life in data set [3] was 120 h.
